27 compounds from patent US8906852B2 (MethylGene Inc., priority 2010, dated 2014) can be followed below.

SMILES strings stand for the structures. Some results are limits rather than exact numbers.

For the assay, the target named is T1, VEGFR/KDR (Homo sapiens, UniProt P35968).
T1 construct: made in house; host or cells: Sf9 cells (Spodoptera frugiperda), baculovirus
T1 sequence (P35968 806-1356): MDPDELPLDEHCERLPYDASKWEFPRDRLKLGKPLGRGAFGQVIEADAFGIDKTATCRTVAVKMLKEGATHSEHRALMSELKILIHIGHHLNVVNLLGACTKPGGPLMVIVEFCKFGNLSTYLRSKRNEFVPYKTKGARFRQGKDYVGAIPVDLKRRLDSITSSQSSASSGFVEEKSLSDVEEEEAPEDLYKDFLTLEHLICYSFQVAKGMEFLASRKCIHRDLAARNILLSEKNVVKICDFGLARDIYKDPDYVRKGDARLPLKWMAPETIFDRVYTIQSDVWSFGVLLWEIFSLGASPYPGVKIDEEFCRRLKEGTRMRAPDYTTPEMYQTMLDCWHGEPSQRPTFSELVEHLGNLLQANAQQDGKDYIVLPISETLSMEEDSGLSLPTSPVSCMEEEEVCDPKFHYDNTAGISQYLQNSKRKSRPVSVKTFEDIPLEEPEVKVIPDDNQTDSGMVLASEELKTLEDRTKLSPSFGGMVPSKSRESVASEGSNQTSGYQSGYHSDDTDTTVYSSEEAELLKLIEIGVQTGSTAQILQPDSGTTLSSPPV
In words: VEGFR/KDR kinase inhibition, DELFIA assay. Format: biochemical. The settings on record: ATP 0.6 uM (2x Km), enzyme 5 nM. An outline of the steps:
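DELFIA time-resolved fluorescence readout using Europium-tagged anti-phosphotyrosine antibody after EDTA stop. Kinase reaction on plate-bound poly(Glu4,Tyr) ran 10-30 min at 30° C with 5 nM enzyme and 0.6 uM ATP (2× Km), following 4 min on-ice pre-incubation with compound; IC50 over a concentration range.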
The compound `CCOC(=O)C1CCCN(Cc2ccc(-c3cc4nccc(Oc5ccc(NC(=O)NC6CC6)cc5F)c4s3)nc2)C1` (stereo not drawn) [Compound 475, ethyl 1-((6-(7-(4-(3-cyclopropylureido)-2-fluorophenoxy)thieno[3,2-b]pyridin-2-yl)pyridino-yl)methyl)piperidine-3-carboxylate] had an IC50 of under 50 nM.

Take `COC(=O)[C@@H]1CCCN1Cc1ccc(-c2cc3nccc(Oc4ccc(NC(=O)NC5CC5)cc4F)c3s2)nc1` [Compound 476]: the IC50 is under 50 nM.

As for `O=C(Nc1ccc(Oc2ccnc3cc(-c4ccc(CN5CC(C(=O)O)C5)cn4)sc23)c(F)c1)NC1CC1` [Compound 477, 1-((6-(7-(4-(3-cyclopropylureido)-2-fluorophenoxy)thieno[3,2-b]pyridin-2-yl)pyridin-3-yl)methyl)azetidine-3-carboxylic acid], the IC50 was under 50 nM.

In turn, `COC(=O)C1CCN(Cc2ccc(-c3cc4nccc(Oc5ccc(NC(=O)NC6CC6)cc5F)c4s3)nc2)C1` (stereo not drawn) [Compound 478, methyl 1-((6-(7-(4-(3-cyclopropylureido)-2-fluorophenoxy)thieno[3,2-b]pyridin-2-yl)pyridin-3-yl)methyl)pyrrolidine-3-carboxylate] showed an IC50 of under 50 nM.

For `CC(C)(C)OC(=O)N[C@H]1CCN(Cc2ccc(-c3cc4nccc(Oc5ccc(NC(=O)NC6CC6)cc5F)c4s3)nc2)C1` [Compound 480, (S)-tert-butyl 1-((6-(7-(4-(3-cyclopropylureido)-2-fluorophenoxy)thieno[3,2-b]pyridin-2-yl)pyridin-3-yl)methyl)pyrrolidin-3-ylcarbamate], the IC50 was under 50 nM.

`CC(C)(C)OC(=O)N[C@@H]1CCN(Cc2ccc(-c3cc4nccc(Oc5ccc(NC(=O)NC6CC6)cc5F)c4s3)nc2)C1` [Compound 481, (R)-tert-butyl 1-((6-(7-(4-(3-cyclopropylureido)-2-fluorophenoxy)thieno[3,2-b]pyridin-2-yl)pyridin-3-yl)methyl)pyrrolidin-3-ylcarbamate] registered an IC50 of under 50 nM.

`CN1CCN(C(=O)C2CCN(Cc3ccc(-c4cc5nccc(Oc6ccc(NC(=O)NC7CC7)cc6F)c5s4)nc3)CC2)CC1` [Compound 482, 1-cyclopropyl-3-(3-fluoro-4-(2-(5-((4-(4-methylpiperazine-1-carbonyl)piperidin-1-yl)methyl)pyridin-2-yl)thieno[3,2-b]pyridin-7-yloxy)phenyl)urea] yielded an IC50 of under 50 nM.

Compound `O=C(Nc1ccc(Oc2ccnc3cc(-c4ccc(CN5CCC(C(=O)NCCO)CC5)cn4)sc23)c(F)c1)NC1CC1` [Compound 483, 1-((6-(7-(4-(3-cyclopropylureido)-2-fluorophenoxy)thieno[3,2-b]pyridin-2-yl)pyridin-3-yl)methyl)-N-(2-hydroxyethyl)piperidine-4-carboxamide] gave an IC50 of under 50 nM.

`CN(CCO)C(=O)C1CCN(Cc2ccc(-c3cc4nccc(Oc5ccc(NC(=O)NC6CC6)cc5F)c4s3)nc2)CC1` [Compound 484] gave an IC50 of under 50 nM.

`O=C(Nc1ccc(Oc2ccnc3cc(-c4ccc(CN5CCC[C@H]5C(=O)NCCO)cn4)sc23)c(F)c1)NC1CC1` [Compound 485, (S)-1-((6-(7-(4-(3-cyclopropylureido)-2-fluorophenoxy)thieno[3,2-b]pyridin-2-yl)pyridin-3-yl)methyl)-N-(2-hydroxyethyl)pyrrolidine-2-carboxamide] yielded a half-maximal inhibitory concentration (IC50) of under 50 nM.

Compound `CN(CCO)C(=O)[C@@H]1CCCN1Cc1ccc(-c2cc3nccc(Oc4ccc(NC(=O)NC5CC5)cc4F)c3s2)nc1` [Compound 486, (S)-1-((6-(7-(4-(3-cyclopropylureido)-2-fluorophenoxy)thieno[3,2-b]pyridin-2-yl)pyridin-3-yl)methyl)-N-(2-hydroxyethyl)-N-methylpyrrolidine-2-carboxamide] returned an IC50 of under 50 nM.

`CN(C)CCNC(=O)[C@@H]1CCCN1Cc1ccc(-c2cc3nccc(Oc4ccc(NC(=O)NC5CC5)cc4F)c3s2)nc1` [Compound 487, (S)-1-((6-(7-(4-(3-cyclopropylureido)-2-fluorophenoxy)thieno[3,2-6]pyridin-2-yl)pyridin-3-yl)methyl)-N-(2-(dimethylamino)ethyl) pyrrolidine-2-carboxamide] had an IC50 of under 50 nM.

`CN1CCN(C(=O)[C@@H]2CCCN2Cc2ccc(-c3cc4nccc(Oc5ccc(NC(=O)NC6CC6)cc5F)c4s3)nc2)CC1` [Compound 488, (S)-1-cyclopropyl-3-(3-fluoro-4-(2-(5-((2-(4-methylpiperazine-1-carbonyl)pyrrolidin-1-yl)methyl)pyridin-2-yl)thieno[3,2-b]pyridin-7-yloxy)phenyl)urea] came in with an IC50 of under 50 nM.

Turning to `CN1CCN(C(=O)C2CN(Cc3ccc(-c4cc5nccc(Oc6ccc(NC(=O)NC7CC7)cc6F)c5s4)nc3)C2)CC1` [Compound 489, 1-cyclopropyl-3-(3-fluoro-4-(2-(5-((3-(4-methylpiperazine-1-carbonyl)azetidin-1-yl)methyl)pyridin-2-yl)thieno[3,2-b]pyridin-7-yloxy)phenyl)urea], the IC50 is under 50 nM.

On to `CN(C)CCNC(=O)C1CN(Cc2ccc(-c3cc4nccc(Oc5ccc(NC(=O)NC6CC6)cc5F)c4s3)nc2)C1` [Compound 490, 1-((6-(7-(4-(3-cyclopropylureido)-2-fluorophenoxy)thieno[3,2-b]pyridin-2-yl)pyridin-3-yl)methyl)-N-(2-(dimethylamino)ethyl)azetidine-3-carboxamide], for which the IC50 is under 50 nM.

`CN(C)CCNC(=O)C1CCCN(Cc2ccc(-c3cc4nccc(Oc5ccc(NC(=O)NC6CC6)cc5F)c4s3)nc2)C1` (stereo not drawn) [Compound 491, 1-((6-(7-(4-(3-cyclopropylureido)-2-fluorophenoxy)thieno[3,2-b]pyridin-2-yl)pyridin-3-yl)methyl)-N-(2-(dimethylamino)ethyl)piperidine-3-carboxamide] yielded an IC50 of under 50 nM.

In turn, `O=C(Nc1ccc(Oc2ccnc3cc(-c4ccc(CN5CCCC(C(=O)NCCO)C5)cn4)sc23)c(F)c1)NC1CC1` (stereo not drawn) [Compound 492, 1-((6-(7-(4-(3-cyclopropylureido)-2-fluorophenoxy)thieno[3,2-b]pyridin-2-yl)pyridin-3-yl)methyl)-N-(2-hydroxyethyl)piperidine-3-carboxamide] yielded an IC50 of under 50 nM.

Compound `CN1CCN(C(=O)C2CCCN(Cc3ccc(-c4cc5nccc(Oc6ccc(NC(=O)NC7CC7)cc6F)c5s4)nc3)C2)CC1` (stereo not drawn) [Compound 493, 1-cyclopropyl-3-(3-fluoro-4-(2-(5-((3-(4-methylpiperazine-1-carbonyl)piperidin-1-yl)methyl)pyridin-2-yl)thieno[3,2-b]pyridin-7-yloxy)phenyl)urea] gave an IC50 of under 50 nM.

Turning to `CN(CCO)C(=O)C1CCCN(Cc2ccc(-c3cc4nccc(Oc5ccc(NC(=O)NC6CC6)cc5F)c4s3)nc2)C1` (stereo not drawn) [Compound 494, 1-((6-(7-(4-(3-cyclopropylureido)-2-fluorophenoxy)thieno[3,2-b]pyridin-2-yl)pyridin-3-yl)methyl)-N-(2-hydroxyethyl)-N-methylpiperidine-3-carboxamide], the IC50 was under 50 nM.

`N[C@H]1CCN(Cc2ccc(-c3cc4nccc(Oc5ccc(NC(=O)NC6CC6)cc5F)c4s3)nc2)C1` [Compound 495, (S)-1-(4-(2-(5-((3-aminopyrrolidin-1-yl)methyl)pyridin-2-yl)thieno[3,2-b]-pyridin-7-yloxy)-3-fluorophenyl)-3-cyclopropylurea] had an IC50 of under 50 nM.

Take `CC1(C)CN(Cc2ccc(-c3cc4nccc(Oc5ccc(NC(=O)NC6CC6)cc5F)c4s3)nc2)CCN1` [Compound 496, 1-cyclopropyl-3-(4-(2-(5-((3,3-dimethylpiperazin-1-yl)methyl)pyridin-2-yl)thieno[3,2-b]pyridin-7-yloxy)-3-fluorophenyl)urea]: the IC50 was under 50 nM.

With `O=C(CO)N[C@H]1CCN(Cc2ccc(-c3cc4nccc(Oc5ccc(NC(=O)NC6CC6)cc5F)c4s3)nc2)C1` [Compound 497, (S)-N-(1-((6-(7-(4-(3-cyclopropylureido)-2-fluorophenoxy)thieno[3,2-b]pyridin-2-yl)-pyridin-3-yl)methyl)pyrrolidin-3-yl)-2-hydroxyacetamide], the IC50 is under 50 nM.

The compound `CC1(C)CN(Cc2ccc(-c3cc4nccc(Oc5ccc(NC(=O)NC6CC6)cc5F)c4s3)nc2)CCN1C(=O)CO` [Compound 498, 1-cyclopropyl-3-(3-fluoro-4-(2-(5-((4-(2-hydroxyacetyl)-3,3-dimethylpiperazin-1-yl)methyl)pyridin-2-yl)thieno[3,2-b]pyridin-7-yloxy)phenyl)urea] registered an IC50 of under 50 nM.

`C=CC(=O)N1CCN(Cc2ccc(-c3cc4nccc(Oc5ccc(NC(=O)NC6CC6)cc5F)c4s3)nc2)CC1(C)C` [Compound 499, 1-(4-(2-(5-((4-acryloyl-3,3-dimethylpiperazin-1-yl)methyl)pyridin-2-yl)thieno[3,2-b]pyridin-7-yloxy)-3-fluorophenyl)-3-cyclopropylurea] had an IC50 of under 50 nM.

The compound `CC1(C)CN(Cc2ccc(-c3cc4nccc(Oc5ccc(NC(=O)NC6CC6)cc5F)c4s3)nc2)CCN1CCO` [Compound 500, 1-cyclopropyl-3-(3-fluoro-4-(2-(5-((4-(2-hydroxyethyl)-3,3-dimethylpiperazin-1-yl)methyl)pyridin-2-yl)thieno[3,2-b]pyridin-7-yloxy)phenyl)urea] yielded an IC50 of under 50 nM.

In turn, `COCCNCc1ccc(-c2cc3nccc(Oc4ccc(NC(=S)NC5CC5)cc4F)c3s2)nc1` [Compound 502, 1-Cyclopropyl-3-(3-fluoro-4-(2-(5-((2-methoxyethylamino)methyl)pyridin-2-yl)thieno[3,2-b]pyridin-7-yloxy)phenyl)thiourea] registered an IC50 of under 50 nM.

`CCNC(=O)N(CCOC)Cc1ccc(-c2cc3nccc(Oc4ccc(NC(=S)NC5CC5)cc4F)c3s2)nc1` [Compound 503, 1-((6-(7-(4-(3-cyclopropylthioureido)-2-fluorophenoxy)thieno[3,2-b]pyridin-2-yl)pyridin-3-yl)methyl)-3-ethyl-1-(2-methoxyethyl)urea] yielded an IC50 of 50 to 100 nM.

Broadly, the IC50 is the concentration that inhibits the measured activity by half.
